Measurements: patent US7339023B2, “Partial peptide mimetics and methods” (Regents of the University of Minnesota, priority 2002, dated 2008)

Key:
[1] = test system: bFGF-stimulated human umbilical vascular EC (HUVEC); experiment: EC proliferation measurement, [3H]-thymidine incorporation assay; type: cell-based; details: for IC50: bFGF-stimulated (10 ng/ml) HUVEC, 3H-thymidine incorporation, 3 days; for EC Proliferation % Inhibition at 25 μM: bFGF-stimulated HUVEC
Experimental: Human umbilical vein derived EC (HUVEC) were harvested from normal human umbilical cords by perfusion with 0.125% trypsin/EDTA. Harvested HUVECs were cultured in gelatin coated tissue culture flasks and subcultured 1:3 once a week in culture medium (RPMI-1640 with 20% human serum (HS), supplemented with 2 mM glutamine and 100 U/ml penicillin and 0.1 mg/ml streptomycin). Bovine capillary EC (BCE) were kindly provided by Dr. M. Furie (State University of New York, Stony Brook, USA) and were cultured in fibronectin coated tissue culture flasks in RPMI-1640 medium containing 10% FCS, glutamine and antibiotics.
EC proliferation was measured using a [^3H]-thymidine incorporation assay. Proliferation of bFGF-stimulated (10 nanogram per milliliter (ng/ml)) human umbilical vascular EC (HUVEC) cultures was measured by quantification of ^3H-thymidine incorporation. Proliferation is expressed as mean counts per minute (cpm) of quadruplicate cultures in three independent experiments (±SEM). EC were seeded at 5000 cells/well in flat-bottomed tissue culture plates and grown for 3 days in the absence or presence of regulators, in culture medium. During the last 6 hours of the assay, the culture was pulsed with 0.5 μCi [methyl-^3H]-thymidine/well. Human umbilical vein derived EC (HUVEC) were harvested from normal human umbilical cords by perfusion with 0.125% trypsin/EDTA. Harvested HUVECs were cultured in gelatin coated tissue culture flasks and subcultured 1:3 once a week in culture medium (RPMI-1640 with 20% human serum (HS), supplemented with 2 mM glutamine and 100 U/ml penicillin and 0.1 mg/ml streptomycin).

bovine EC (BCE) = experiment: In vitro angiogenesis assay, collagen gel-based sprout formation; type: cell-based; design: key to % Sprouting: —: No effect on the assay; details: for % Sprouting: BCE on cytodex-3 beads in collagen gel, 20 ng/mL bFGF, 24 hours, * = significant inhibition (p < 0.03); for Sprouting in collagen gel-based sprout formation assay: versus control showing numerous sprouts, data not shown
Experimental: Sprouting and tube formation of bovine EC (BCE) were studied using cytodex-3 beads overgrown with BCE in a 3-dimensional collagen gel (vitrogen-100, Collagen Corp., Fremont, Calif., USA) as described in D. Van der Schaft et al., Blood, 96,176-181 (2000). Following gelation, culture medium containing 20 ng/mL bFGF, with or without […] or DBF analogs, was applied on top of the gel. After 24 hours of cell culture at 37° C., photographs were made (not shown). The amount of sprouting in each well (i.e., the total length of the sprouts) was quantified by the computer program NIH image. To quantify differences in sprouting and tube formation, statistical analysis was performed using the Mann-Whitney U test.

[2] = test system: MA148 human ovarian carcinoma tumors; experiment: Immunohistochemistry of tumor sections (CD31 microvessel density, PCNA proliferation, TUNEL apoptosis); type: in vivo, mice; details: for Vessel density relative to control: anti-CD31 staining of tumor cross-sections; for End Points (mean number of vessel end points) / Branch Points (mean number of vessel branch points/nodes per image) / Proliferation (PCNA-staining, white pixels per field) / Vessel Density (CD31-staining, white pixels per field) / Vessel Length (mean total vessel length per image): tumors of treated mice, ± standard error; for End Points (mean number of vessel end points): after skeletonization
Experimental: Immunohistochemistry was used to assess microvessel density and the extent of total cell apoptosis. Tumor tissue was embedded in tissue freezing medium (Miles Inc, Elkart, Ind.) and shock frozen in liquid nitrogen. […] sections of tissue were prepared for immunohistochemical analysis. For this, tissue sections were brought to room temperature, air dried overnight, and then fixed in acetone for 10 minutes. Slides were allowed to air dry for at least 30 minutes and were washed three times for 5 minutes each in phosphate-buffered saline (PBS, pH 7.4). Samples were then blocked with PBS containing 0.1% bovine serum albumin and 3% human serum albumin for at least 30 minutes at room temperature in a humidified box. Samples were subsequently incubated with phycoerytrin (PE)-conjugated monoclonal antibody to CD31 (PECAM-1) in a 1:50 dilution (Pharmigen, San Diego, Calif.) to stain for microvessel density. After 1-hour incubation at room temperature, slides were washed with PBS and immediately imaged using an Olympus BX-60 fluorescence microscope at 200× magnification.
To assess the extent of total cell apoptosis, tissue sections were stained by using the TUNEL (terminal deoxyribonucleotidyl transferase-mediated dUTP-nick-end labeling) assay, which was performed according to the manufacturer's instructions (in situ cell death detection kit, fluorescein; TUNEL, Roche). Digital images were stored and processed using Adobe Photoshop (Adobe Inc., Mountain View Calif.).
Quantification of microvessel density, the rate of proliferation and total cell apoptosis were determined as described earlier (R. Wild et al., Microvasc. Res., 59, 368-376 (2000)). Statistical analysis was performed using the Student's t test.

[3] = test system: MA148 human ovarian carcinoma; experiment: MA148 xenograft ovarian carcinoma tumor model in athymic mice, tumor volume; details: for Inhibition of tumor growth ten days post-treatment: at sacrifice
Experimental: In all studies, female athymic nude mice (nu/nu, 5-6 weeks old) were used. These mice were purchased from the National Cancer Institute and allowed to acclimatize to local conditions for at least one week. Animals were given water and standard chow ad libitum, and were kept on a 12-hour light/dark cycle. […] Compounds were diluted in 100 mM SDS and administered using osmotic mini-pumps (Durect, Cupertino, Calif.). Exponentially growing MA148 human ovarian carcinoma cells, kindly provided by Prof. Ramakrishnan (R. P. Dings et al., Cancer Res., 63, 382-385 (2003)) were cultured in RPMI 1640 medium (Life Technologies, Grand Island, N.Y.). This medium was supplemented with 10% fetal bovine serum and 1% penicillin/streptomycin (Cellgro, Mediatech, Washington, D.C.) at 37° C. and 5% CO2. One hundred microliters (100 μL) of this tumor cell suspension (2×10^7 cells/ml) was then injected subcutaneously into the right flank of each mouse. Pumps were implanted into the left flank of mice for subcutaneous administration of compound over a 28-day treatment span.
Two variants of this model were used: prevention and intervention. For the prevention variant, treatment was initiated at the time of inoculation with MA148 cells. For the intervention variant, tumors were allowed to grow to an average size of 50 mm^3 (usually day 7 post inoculation) before treatment was initiated. With either variant, animals were randomized prior to the initiation of treatment. Treatment was administered via osmotic mini-pumps (Durect, Cupertino, Calif.), which were implanted subcutaneously in the left flank of mice. […] In each study, control groups of animals were administered either PBS or PBS containing human serum albumin.
Tumor volume was determined by measuring the diameters of tumors using calipers (Scienceware, Pequannock, N.J.) using the equation for the volume of a spheroid: (a^2×b×π)/6, where ‘a’ is the width and ‘b’ the length of the tumor. Measurements were performed two or three times per week. At the conclusion of an experiment, tumor weights were also taken following excision of the tumors from euthanized animals.

Row | Substance | IC50 [1] | % Sprouting (bovine EC (BCE)) | EC Proliferation % Inhibition at 25 μM [1] | further results
1 | ANIKLSVQMKL-[DBF]-I [11DBF1] | 23 ± 5 µM |  |  | 
2 | SVQMKL-[DBF]-IIV [6DBF3] | > 25 µM |  |  | 
3 | L-[DBF]-IIVKLND [1DBF7] | > 25 µM | — | 0% | 
4 | SVQMKL-[DBF]-IIVKLN [6DBF6] | 42 µM |  |  | 
5 | SVQMKL-[DBF]-II [6DBF2] | > 25 µM |  |  | 
6 | IKLSVQMKL-[DBF]-IIVKLND [9DBF7] | 20 µM | 76 ± 40%* | 57% | 
7 | SVQMKL-[DBF]-I [6DBF1] | 76.1 ± 10.9 µM |  |  | 
8 | NIKLSVQMKL-[DBF]-IIVKLND [10DBF7] | 12 µM | 57 ± 17.5%* | 69% | 
9 | ANIKLSVQMKL-[DBF]-IIVK [11DBF4] | 35 µM |  |  | 
10 | ANIKLSVQMKL-[DBF]-IIVKLND [11DBF7] | 12 µM | 23 ± 10%* | 92% | Sprouting in collagen gel-based sprout formation assay (bovine EC (BCE)): highly reduced sprouting; Vessel density relative to control [2]: significantly reduced; End Points (mean number of vessel end points) [2]: 21.2 ± 3.3 mean pixel counts per image; Branch Points (mean number of vessel branch points/nodes per image) [2]: 3.1 ± 0.9 mean pixel counts per image; Proliferation (PCNA-staining, white pixels per field) [2]: 553 ± 75 mean pixel counts per image; Vessel Density (CD31-staining, white pixels per field) [2]: 2879 ± 385 mean pixel counts per image; Vessel Length (mean total vessel length per image) [2]: 3.0 ± 0.6 mean pixel counts per image; Inhibition of tumor growth at the end of the four-week administration period (day 35) ([3]; intervention, day 35): about 50%; Inhibition of tumor growth ten days post-treatment ([3]; intervention): about 50%; Reduction of tumor volume relative to control animals ([3]; prevention model: treatment from time of inoculation, subcutaneous mini-pumps, 10 mg/kg/day): up to 90%
11 | ANIKLSVQMKL-[DBF]-IIVKLN [11DBF6] | 22 µM |  |  | 
12 | QMKL-[DBF]-IIVKLND [4DBF7] | 25 µM | 99 ± 5% | 46% | 
13 | SVQMKL-[DBF]-IIVKLND [6DBF7] | 15 µM | 60 ± 12%* | 68% | Effect on tube formation (bovine EC (BCE)): significant inhibitory effect on tube formation; Sprouting in collagen gel-based sprout formation assay (bovine EC (BCE)): highly reduced sprouting; Number of apoptotic tumor cells ([2]; TUNEL, control 311±103): 851±162; Vessel density relative to control [2]: significantly reduced; End Points (mean number of vessel end points) [2]: 21.7 ± 2.6 mean pixel counts per image; Branch Points (mean number of vessel branch points/nodes per image) [2]: 2.3 ± 1.1 mean pixel counts per image; Proliferation (PCNA-staining, white pixels per field) [2]: 501 ± 68 mean pixel counts per image; Vessel Density (CD31-staining, white pixels per field) [2]: 2213 ± 256 mean pixel counts per image; Vessel Length (mean total vessel length per image) [2]: 2.5 ± 0.4 mean pixel counts per image; Inhibition of tumor growth ten days post-treatment ([3]; intervention): about 50%
14 | SVQMKL-[DBF]-IIVK [6DBF4] | > 25 µM |  |  | 
15 | MKL-[DBF]-IIVKLND [3DBF7] | > 25 µM | 84 ± 30% | 0% | 
